Values of other authors in patent US8388671B2, “Methods for treatment of aneurysmal tissue” (Medtronic Vascular, Inc., priority 2004, dated 2013).

hydroxy-polyethoxy-dodecane [Polidocanol]
LD50 in mice (mice): 1200 mg/kg | LD50 in rabbits (rabbits): 200 mg/kg | LD50 relative to that of Novocain (rabbits; LD50 greater than that of Novocain): approximately 5 times
